Values quoted from earlier work, collected in patent US8349312B2, “Proline substituted cyclosporin analogues” (Enanta Pharmaceuticals, Inc., priority 2009, dated 2013).

What was measured:
[1] = system: hepatitis C virus; settings: Paeshuyse et al., Antiviral Research 65(3):A41 (2005)
[2] = molecular target: cyclophilin A (Homo sapiens, UniProt P62937)
Sequence of cyclophilin A (P62937 whole entry, species assumed): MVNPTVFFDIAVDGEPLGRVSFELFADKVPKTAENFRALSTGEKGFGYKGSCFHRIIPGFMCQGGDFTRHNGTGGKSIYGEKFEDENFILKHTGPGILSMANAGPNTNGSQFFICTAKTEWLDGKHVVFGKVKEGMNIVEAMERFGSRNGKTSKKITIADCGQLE

binding affinity for cyclophilin A [2]: potent binding affinity
SMILES: C/C=C/C[C@@H](C)[C@@H](O)[C@H]1C(=O)N[C@@H](CC)C(=O)N(C)[C@H](C)C(=O)N(CC)[C@@H](C(C)C)C(=O)N[C@@H](C(C)C)C(=O)N(C)[C@@H](CC(C)C)C(=O)N[C@@H](C)C(=O)N[C@H](C)C(=O)N(C)[C@@H](CC(C)C)C(=O)N(C)[C@@H](CC(C)C)C(=O)N(C)[C@@H](C(C)C)C(=O)N1C [DEBIO-025]
inhibition of hepatitis C virus replication [1]: potent and selective inhibition
